Results published in patent publication US6586413B2, “Methods and compositions for reducing ischemic injury of the heart by administering adenosine receptor agonists and antagonists” (The United States of America as represented by the …, priority 1999, dated 2003).
Like-named read-outs stand apart in the source and are kept apart here.

Assays:
[1] = system: cardiac ventricular myocytes cultured from chick embryos; experiment: Hypoxia-induced myocyte injury, agent present during prolonged (90 min) hypoxia with glucose deprivation; format: cell-based; conditions: agonist present during prolonged hypoxia/simulated ischemia
Procedure: Ventricular cells were cultured from chick embryos 14 days in ovo as previously described (16, 23). Cells were cultivated in a humidified 5% CO2-95% air mixture at 37° C. […] The medium was changed to a HEPES-buffered medium containing (mM) 139 NaCl, 4.7 KCl, 0.5 MgCl2, 0.9 CaCl2, 5 HEPES (N-2-hydroxyethylpiperazine-N′-2-ethanesulfonic acid) and 2% fetal bovine serum, pH 7.4, 37° C. before exposing the myocytes to the various conditions at 37° C. Control myocytes were maintained in the HEPES-buffered media under room air. Ninety-minute exposure of the myocytes to hypoxia with glucose deprivation was used to induce cell injury. Hypoxia was produced by placing the cells in a hypoxic incubator (NuAire) where O2 was replaced by N2 as previously described (16,23). Effects of adenosine receptor agonists and antagonists on the extent of myocyte injury were determined by exposure of the prepared cells to these agents during the prolonged hypoxia.
(§1) Determination of myocyte injury was made at the end of the ninety-minute hypoxia, at which time myocytes were taken out of the hypoxic incubator and re-exposed to room air (normal % O2). Aliquots of the media were then obtained for creatine kinase (CK) activity measurement, which is followed by quantitation of the number of viable cells. Measurement of basal level of cell injury was made after parallel incubation of control cells under normal % O2. The extent of hypoxia-induced injury to the ventricular cell was quantitatively determined by the percentages of cells killed and by the amount of CK released into the media according to a previously described method (16, 23). […] In brief, the media were replaced with a trypsin-EDTA buffer to detach the cells, which was then followed by sedimentation of the viable myocytes. Parallel changes in % cells killed and CK released (16, 23) further validated this assay for % cells killed. The amount of CK was measured as enzyme activity (unit/mg), and increases in CK activity above the control level were determined. The percentage of cells killed was calculated as the number of cells obtained from the control group (representing cells not subjected to any hypoxia or drug treatment) minus the number of cells from the treatment group divided by number of cells in control group multiplied by 100%.

[2] = target: A3 receptor; conditions: cited from earlier work
[3] = system: ventricular myocytes cultured from chick embryos; experiment: Pharmacological preconditioning: 5 min exposure to agent, then 90 min simulated ischemia; format: cell-based; conditions: for preconditioning / cardioprotective effect: agent alone, 5 min exposure before 90 min ischemia
Procedure: FIG. 14 is a graph showing that the partial A1 receptor agonist, 8-butylaminoCPA, mimics the cardioprotective effect of ischemic preconditioning. Ventricular myocytes were cultured from chick embryos 14 days in ovo. The ability of the partial A1 agonist, 8-butylaminoCPA (8-butylamino-N^6-cyclopentyladenosine), to induce preconditioning was determined. In brief, myocytes were exposed to 8-butylaminoCPA at the indicated concentrations for 5 min, incubated for 10 min with agonist-free medium, and then exposed to simulated ischemia for 90 min. The extent of myocyte injury was quantitated at the end of the 90 min period by determinating the percentage of cells killed and the amount of creatine kinase (CK) released (units per milligram of cell protein). Data are means±SE of values from five independent experiments.
as §1
Media were then replaced with fresh media, which was then followed by exposure to 90-minute simulated ischemia and the data graphed.

[4] = system: cardiac ventricular myocytes cultured from chick embryos; experiment: Hypoxia-induced myocyte injury, agent present during prolonged (90 min) hypoxia with glucose deprivation; format: cell-based; conditions: agonist added upon reoxygenation after 90 minute hypoxia, kept one additional hour; hypoxia alone 26.5±1.0
[5] = system: isolated cardiac myocytes; experiment: Apoptotic cell death by DNA laddering on 1.5% agarose gel; format: cell-based
Procedure: Such smearing is indicative of a culmination of the apoptotic cell death pathway. Isolated cardiac myocytes were exposed to 90-min ischemia and 30-min reoxygenation (lanes 4 and 5). […] Lanes 1 and 2 represent myocytes not exposed to ischemia or any agent. Data were representative of three experiments.
Isolated cardiac myocytes were exposed to prolonged moderate simulated ischemia (17 hours with 2-3% O2). Lane 3 represents myocytes not exposed to ischemia or any agent. Lane 5 represents myocytes exposed to 17 hours of ischemia. […] Data were representative of three experiments.
Lane 3 represents myocytes not exposed to any agent. Lane 5 represents cardiac myocytes exposed (for three hours) to an agent (a P2X receptor agonist, 2-methylthioATP) known to increase intracellular calcium concentration. Prolonged exposure to 2-methylthioATP or UTP caused increased apoptosis (Lane 7). […] Data were representative of two experiments.
The effects of agents which target the adenosine receptor on apoptosis were initially examined in isolated cardiac myocytes exposed to ischemia (for 90 minutes and 30 minutes of reoxygenation) or agents which increase intracellular calcium levels. Increasing the level of intracellular calcium concentration induces non-ischemia-related apoptosis in vitro. Apoptotic cell death of cardiac myocytes was assessed by determining the extent of smearing or “DNA laddering” on 1.5% agarose gels.

[6] = target: T1, A1 receptor (Rattus norvegicus, UniProt P25099); conditions: Table II; cited from earlier work
T1 sequence (P25099 1-326): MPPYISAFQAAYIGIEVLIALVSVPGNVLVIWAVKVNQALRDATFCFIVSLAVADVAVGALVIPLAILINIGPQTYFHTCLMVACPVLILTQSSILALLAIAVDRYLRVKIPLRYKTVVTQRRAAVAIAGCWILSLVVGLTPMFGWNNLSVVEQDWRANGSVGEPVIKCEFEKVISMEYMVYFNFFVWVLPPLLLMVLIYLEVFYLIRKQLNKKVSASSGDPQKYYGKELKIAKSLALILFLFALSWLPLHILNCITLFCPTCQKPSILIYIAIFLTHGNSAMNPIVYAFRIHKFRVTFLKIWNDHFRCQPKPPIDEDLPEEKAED

[7] = target: A2a receptor (Rattus norvegicus, UniProt P30543); conditions: Table II; cited from earlier work
[8] = target: T2, human adenosine A3 receptor (Homo sapiens, UniProt P0DMS8); experiment: Preconditioning in chick atrial myocytes transfected with the human A3 receptor; format: cell-based; conditions: hA3R-transfected vs vector-transfected atrial myocytes
T2 construct: full length cDNA encoding human adenosine A3 receptor subcloned in pcDNA3; expressed in transfected cells; host or cells: chick embryo atrial myocytes, transient calcium phosphate transfection with pcDNA3/hA3R
T2 sequence (P0DMS8 1-318): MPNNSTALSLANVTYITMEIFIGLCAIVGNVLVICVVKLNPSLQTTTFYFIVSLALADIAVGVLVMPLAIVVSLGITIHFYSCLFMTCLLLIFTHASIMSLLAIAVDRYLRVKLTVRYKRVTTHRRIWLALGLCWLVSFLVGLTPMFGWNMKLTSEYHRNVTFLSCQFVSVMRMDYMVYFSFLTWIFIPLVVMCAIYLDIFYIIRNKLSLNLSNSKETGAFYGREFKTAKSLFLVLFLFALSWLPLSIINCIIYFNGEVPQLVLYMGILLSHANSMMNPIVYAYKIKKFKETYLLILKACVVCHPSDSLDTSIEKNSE
Procedure: Transfection of chick atrial myocytes with the human A3 receptor—Atrial cells were cultured from chick embryos 14 days in ovo and transiently transfected with pcDNA3 (empty vector) or with pcDNA3/hA3R (full length cDNA encoding human adenosine A3 receptor subcloned in pcDNA3) using the calcium phosphate precipitation method. Forty-eight hours after transfection, the cells were exposed to the compounds of the invention and the percentage of myocytes killed during simulated ischemia was determined.
The transfected myocytes were then exposed to the compound for 5 minutes, which was followed by replacement with fresh media and myocytes exposed to normal conditions (non-ischemic) for 10 minutes prior to being exposed to ninety minutes of ischemia. The decrease in the number of myocytes killed in A3 receptor cDNA-transfected myocytes as compared to vector-transfected myocytes was plotted as a function of the concentration of the compound. This decrease in myocytes killed represented an index of the protection mediated via the human adenosine A3 receptor.

Sequence of A2a receptor (P30543 whole entry): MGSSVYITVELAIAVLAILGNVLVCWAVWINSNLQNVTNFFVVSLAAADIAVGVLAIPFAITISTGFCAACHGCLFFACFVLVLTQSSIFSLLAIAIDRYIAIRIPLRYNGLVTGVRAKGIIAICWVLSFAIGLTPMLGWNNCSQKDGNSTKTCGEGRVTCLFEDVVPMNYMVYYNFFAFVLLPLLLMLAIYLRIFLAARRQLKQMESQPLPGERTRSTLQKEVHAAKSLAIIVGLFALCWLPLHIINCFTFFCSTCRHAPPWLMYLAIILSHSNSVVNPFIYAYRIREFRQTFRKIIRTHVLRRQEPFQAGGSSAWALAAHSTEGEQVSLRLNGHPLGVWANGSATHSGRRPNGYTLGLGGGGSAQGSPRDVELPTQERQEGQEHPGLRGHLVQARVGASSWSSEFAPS

NCCNC(=O)Cc1ccc(NC(=O)Cc2ccc(Nc3ncnc4c3ncn4[C@@H]3O[C@H](CO)[C@@H](O)[C@H]3O)cc2)cc1 [ADAC, N^6-[4-[[[4-[[[(2-aminoethyl)amino]carbonyl]methyl]anilino]carbonyl]methyl]phenyl]adenosine]
cardioprotective effect when present during prolonged hypoxia (CK released, % myocytes killed) [1]: able to protect the myocytes when present during the prolonged hypoxia | Ki ([2]; Compound 8 table): 4 nM

OC[C@H]1O[C@@H](n2cnc3c(NC4CCCC4)nc(Cl)nc32)[C@H](O)[C@@H]1O [CCPA, 2-chloro-N^6-cyclopentyladenosine]
cardioprotective effect when present during prolonged hypoxia (CK released, % myocytes killed) [1]: caused a dose-dependent reduction in the percentage of myocytes killed | preconditioning / cardioprotective effect [3]: causes a pronounced cardioprotective effect in the cardiac myocyte | % myocytes killed [4]: 22.1±1.5%

CNC(=O)[C@H]1O[C@@H](n2cnc3c(NCc4cccc(I)c4)nc(Cl)nc32)[C@H](O)[C@@H]1O [Cl-IB-MECA, 2-chloro-N^6-(3-iodobenzyl)adenosine-5′-N-methyluronamide]
cardioprotective effect when present during prolonged hypoxia (CK released, % myocytes killed) [1]: capable of protecting the cardiac myocytes against hypoxia-induced injury | preconditioning / cardioprotective effect [3]: caused a potent cardioprotective effect | apoptotic cell death (DNA laddering) ([5]; 90 min ischemia and 30 min reoxygenation, 10 nM Cl-IB-MECA, 1 μM MRS1191): reduced apoptotic cell death of cardiac myocytes | apoptotic cell death in the presence of 2-methylthioATP ([5]; co-incubation, no ischemia): resulted in a decrease in apoptotic cell death | apoptosis (DNA laddering) ([5]; prolonged moderate ischemia, 17 hours with 2-3% O2): reduced apoptosis | % myocytes killed [4]: 23.0±1.4%

CCNC(=O)C1OC(n2cnc3c(NC(=O)Nc4ccccc4C(F)(F)F)ncnc32)C(O)C1O (centres unmarked) [Compound 4d, N^6-((2-trifluoromethyl)carbamoyl)adenosine-5′-uronamide]
Ki [6]: 384 nM | Ki [7]: > 10000 nM | Ki ([2]; Table II): 54 nM

CNC(=O)C1OC(n2cnc3c(NOc4ccccc4)ncnc32)C(O)C1O (stereo not drawn) [Compound 11, 6-(O-Phenylhydroxylamino)purine-9-beta-ribofuranoside-5′-N-methyluronamide]
Ki [6]: 2060 nM | Ki [7]: 66300 nM | Ki ([2]; Table II): 1340 nM

CNC(=O)C1OC(n2cnc3c(NCc4cccc(C#CCNC(=O)Cc5ccc(NC(=O)Cc6ccc(Nc7ncnc8c7ncn8C7OC(CO)C(O)C7O)cc6)cc5)c4)ncnc32)C(O)C1O (centres unmarked) [MRS 1543]
protective effect in combined presence of DPCPX and MRS1191 ([3]; DPCPX (1 μM) plus MRS1191 (1 μM)): completely abolished the protective effect of MRS1543 | preconditioning / cardioprotective effect [3]: can pharmacologically precondition the cardiac myocyte and induce a potent cardioprotective effect | protective effect in presence of DPCPX ([3]; excess DPCPX (1 μM)): only partially blocked by A1 antagonist DPCPX | protective effect in presence of MRS1191 ([3]; excess MRS1191 (1 μM)): only partially attenuated by the A3 antagonist MRS1191 | preconditioning / protection mediated via human adenosine A3 receptor [8]: can precondition and induces a cardioprotective effect via the human adenosine A3 receptor

CCNC(=O)C1OC(n2cnc3c(NC4CCCCC4)ncnc32)C(O)C1O (centres unmarked) [N^6-cyclohexyl NECA, N6-cyclohexyl 5′-N-ethylcarboxamidoadenosine]
Ki ([2]; Table II): 16 nM
